Measurements: patent US8193191B2, “Urotensin II receptor antagonists” (Janssen Pharmaceutica N.V., priority 2006, dated 2012)

Experiments:
[1] = target: T1, Human UII receptor, 6D9 human rhabdomyosarcoma cells (Homo sapiens, UniProt Q9UKP6); test: Human UII Calcium Mobilization Assay; format: cell-based; conditions: average value, FLIPR TETRA, read-out: Human UII Ca^+ Mobilization Average IC50
T1 construct: 6D9: isolated by dilution subcloning of RMS13 cells, ATCC® Number: CRL-2061; host or cells: 6D9 human rhabdomyosarcoma cells (subclone of RMS13)
T1 sequence (Q9UKP6 1-389): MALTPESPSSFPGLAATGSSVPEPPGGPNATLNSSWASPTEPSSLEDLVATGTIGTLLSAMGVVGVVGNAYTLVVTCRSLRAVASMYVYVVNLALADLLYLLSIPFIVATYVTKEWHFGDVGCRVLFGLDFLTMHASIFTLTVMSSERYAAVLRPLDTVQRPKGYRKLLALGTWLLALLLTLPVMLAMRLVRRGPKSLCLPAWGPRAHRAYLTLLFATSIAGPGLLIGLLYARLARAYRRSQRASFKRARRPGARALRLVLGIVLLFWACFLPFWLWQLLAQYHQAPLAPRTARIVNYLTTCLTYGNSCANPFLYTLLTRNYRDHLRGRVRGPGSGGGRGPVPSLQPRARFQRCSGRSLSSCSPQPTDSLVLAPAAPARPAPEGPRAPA
Description: 6D9 human rhabdomyosarcoma cells were seeded into tissue culture treated 384-well black-walled clear bottom plates (3712, Corning Incorporated, Corning, N.Y.) at 8,000 cells/well in 25 μL of culture medium, and maintained in an incubator (5% CO2 at 37° C.) for 22 hrs prior to the calcium mobilization assay. 25 μL of dye solution was added to the wells such that the final liquid volume before agonist/antagonist treatment was 50 μL for all assays. The cell plates were incubated at 37° C. for 45 minutes and the fluorescence intensity was measured on a Fluorometric Imaging Plate Reader (FLIPR^TETRA, Molecular Devices, Sunnyvale, Calif.).
Antagonist and agonist U-II were added at room temperature on the FLIPR^TETRA, and the fluorescence intensity before and after addition was measured over a period of 4 minutes. The dye incubation time and temperature as well as instrument setting was adjusted so the fluorescence intensity could be compared between plates on the same day. EC50 and IC50 were analyzed using GraphPad Prism 4 software (GraphPad Software Inc., San Diego, Calif.).
Materials and reagent Preparation: Human Rhabdomyosarcoma cells (6D9: isolated by dilution subcloning of RMS13 cells, ATCC® Number: CRL-2061, American Type Culture Collection ATCC, Manassas, Va.) was maintained in RPMI-1640 medium (30-2001, ATCC, Manassas, Va.) supplemented with 10% (v/v) Fetal Bovine Serum (SH30071.03, Hyclone, Logan, Utah).
Dye preparation: BD™ Calcium Assay Kit (80500-301, BD Biosciences, Rockville, Md.) was prepared according to the manufacture's instruction in 1× Hanks' balanced salt solution (HBSS, 21-023-CV, Mediatech, Inc. Herndon, Va.) containing 20 mM HEPES buffer (25-060-CI, Mediatech, Inc. Herndon, Va.). Final dye loading conditions included 1.25 mM probenecid (P36400, Invitrogen, Carlsbad, Calif.) and 0.01% FBS.
Urantide (PUT-3639-PI, Peptide International, Louisville, Ky.) was prepared in water at 5 mM. For assays, U-II agonist, U-II antagonist and urantide were diluted with HBSS/HEPES containing 0.01% FBS.
Test compounds were dissolved in DMSO at 10 mM concentration. The serial dilutions were carried out in HBSS/HEPES. The highest final DMSO concentration was at 0.1%.

[2] = target: T2, endogenous human UII receptor (Homo sapiens, UniProt Q9UKP6); test: Human Radioligand Binding Assay ((^125I)-U-II binding to human skeletal muscle myoblasts)
T2 sequence (Q9UKP6 1-389): T1 sequence (Q9UKP6 1-389)

[3] = target: T3, rat GPR14 (U-II receptor) (Rattus norvegicus, UniProt P49684); test: Rat UII Calcium Mobilization FLIPR Assay; format: cell-based; conditions: average value for the compound tested; read-out: Rat UII FLIPR Average IC50
T3 construct: expressed in transfected cells
T3 sequence (P49684 1-386): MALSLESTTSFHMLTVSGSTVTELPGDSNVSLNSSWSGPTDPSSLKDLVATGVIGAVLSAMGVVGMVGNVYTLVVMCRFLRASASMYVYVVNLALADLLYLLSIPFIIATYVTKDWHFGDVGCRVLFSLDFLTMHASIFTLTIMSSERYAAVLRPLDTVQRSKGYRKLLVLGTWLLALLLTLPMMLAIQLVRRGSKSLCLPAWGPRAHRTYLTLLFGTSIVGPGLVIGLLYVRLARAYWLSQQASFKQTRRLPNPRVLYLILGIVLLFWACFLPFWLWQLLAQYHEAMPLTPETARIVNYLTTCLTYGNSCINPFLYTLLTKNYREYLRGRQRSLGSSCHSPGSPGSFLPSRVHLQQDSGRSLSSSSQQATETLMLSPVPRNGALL
Outline: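 CHO cells stably expressing rat U-II receptor, seeded 24 h before assay, were loaded with FLIPR calcium dye in HBSS/20 mM HEPES/0.1% BSA/2.5 mM probenecid, pH 7.4, for 1 h at 37° C. Calcium mobilization then read by FLIPR at 23° C.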

SMILES	IC50 [1]	Ki [2]	IC50 [3]
COC(=O)c1sccc1S(=O)(=O)NCCCC(c1ccc(OC)c(OC)c1)N1C(=O)c2cccc(N3CCN([C@H](C)c4ccccc4)CC3)c2C1=O (stereo partly drawn) [Cpd 94, 3-(4-(3,4-dimethoxy-phenyl)-4-{1,3-dioxo-4-[4-(1R)-(1-phenyl-ethyl)-piperazin-1-yl]-1,3-dihydro-isoindol-2-yl}-butylsulfamoyl)-thiophene-2-carboxylic acid methyl ester]	430 nM	42 nM	65 nM
COc1ccc(C(CCCNS(=O)(=O)c2ccc(-c3ccon3)s2)N2C(=O)c3cccc(N4CCN([C@H](C)c5ccccc5)CC4)c3C2=O)cc1OC (stereo partly drawn) [Cpd 95, 5-isoxazol-3-yl-thiophene-2-sulfonic acid (4-(3,4-dimethoxy-phenyl)-4-{1,3-dioxo-4-[4-(1R)-(1-phenyl-ethyl)-piperazin-1-yl]-1,3-dihydro-isoindol-2-yl}-butyl)-amide]	200 nM	110 nM	89 nM
COc1ccc(C(CCCNS(=O)(=O)c2ccccc2)N2C(=O)c3cccc(N4CCN([C@H](C)c5ccccc5)CC4)c3C2=O)cc1OC (stereo partly drawn) [Cpd 96, N-(4-(3,4-dimethoxy-phenyl)-4-{1,3-dioxo-4-[4-(1R)-(1-phenyl-ethyl)-piperazin-1-yl]-1,3-dihydro-isoindol-2-yl}-butyl)-benzenesulfonamide]	760 nM	97 nM	97 nM
COc1ccc(C(CCCNS(=O)(=O)c2sc(NC(C)=O)nc2C)N2C(=O)c3cccc(N4CCN([C@H](C)c5ccccc5)CC4)c3C2=O)cc1OC (stereo partly drawn) [Cpd 97, N-[5-(4-(3,4-dimethoxy-phenyl)-4-{1,3-dioxo-4-[4-(1R)-(1-phenyl-ethyl)-piperazin-1-yl]-1,3-dihydro-isoindol-2-yl}-butylsulfamoyl)-4-methyl-thiazol-2-yl]-acetamide]	700 nM	180 nM	63 nM
COc1ccc(C(CCCNS(=O)(=O)c2cn(C)cn2)N2C(=O)c3cccc(N4CCN([C@H](C)c5ccccc5)CC4)c3C2=O)cc1OC (stereo partly drawn) [Cpd 98, 1-methyl-1H-imidazole-4-sulfonic acid (4-(3,4-dimethoxy-phenyl)-4-{1,3-dioxo-4-[4-(1R)-(1-phenyl-ethyl)-piperazin-1-yl]-1,3-dihydro-isoindol-2-yl}-butyl)-amide]	350 nM	42 nM	18 nM
COc1ccc(C(CCCNS(=O)(=O)c2cc(C)oc2C)N2C(=O)c3cccc(N4CCN([C@H](C)c5ccccc5)CC4)c3C2=O)cc1OC (stereo partly drawn) [Cpd 99, 2,5-dimethyl-furan-3-sulfonic acid (4-(3,4-dimethoxy-phenyl)-4-{1,3-dioxo-4-[4-(1R)-(1-phenyl-ethyl)-piperazin-1-yl]-1,3-dihydro-isoindol-2-yl}-butyl)-amide]	2700 nM	620 nM	170 nM
COc1ccc(C(CCCNS(=O)(=O)c2c(C)nn(C)c2Cl)N2C(=O)c3cccc(N4CCN([C@H](C)c5ccccc5)CC4)c3C2=O)cc1OC (stereo partly drawn) [Cpd 101, 5-chloro-1,3-dimethyl-1H-pyrazole-4-sulfonic acid (4-(3,4-dimethoxy-phenyl)-4-{1,3-dioxo-4-[4-(1R)-(1-phenyl-ethyl)-piperazin-1-yl]-1,3-dihydro-isoindol-2-yl}-butyl)-amide]	300 nM	120 nM	30 nM
COc1ccc(C(CNC(=O)Cc2ccncc2)N2C(=O)c3cccc(N4CCN([C@H](C)c5ccccc5)CC4)c3C2=O)cc1OC (stereo partly drawn) [Cpd 102, N-(2-(3,4-dimethoxy-phenyl)-2-{1,3-dioxo-4-[4-(1R)-(1-phenyl-ethyl)-piperazin-1-yl]-1,3-dihydro-isoindol-2-yl}-ethyl)-2-pyridin-4-yl-acetamide]	520 nM	99 nM	49 nM
COc1ccc(C(CCCNC(=O)c2cccs2)N2C(=O)c3cccc(N4CCN([C@H](C)c5ccccc5)CC4)c3C2=O)cc1OC (stereo partly drawn) [Cpd 104, thiophene-2-carboxylic acid (4-(3,4-dimethoxy-phenyl)-4-{1,3-dioxo-4-[4-(1R)-(1-phenyl-ethyl)-piperazin-1-yl]-1,3-dihydro-isoindol-2-yl}-butyl)-amide]	170 nM	120 nM	53 nM
COc1ccc(C(CCCNS(=O)(=O)c2ccsc2)N2C(=O)c3cccc(N4CCN([C@H](C)c5ccccc5)CC4)c3C2=O)cc1OC (stereo partly drawn) [Cpd 105, thiophene-3-sulfonic acid (4-(3,4-dimethoxy-phenyl)-4-{1,3-dioxo-4-[4-(1R)-(1-phenyl-ethyl)-piperazin-1-yl]-1,3-dihydro-isoindol-2-yl}-butyl)-amide]	110 nM	65 nM	68 nM
COc1ccc(C(CCCNS(=O)(=O)c2cccnc2)N2C(=O)c3cccc(N4CCN([C@H](C)c5ccccc5)CC4)c3C2=O)cc1OC (stereo partly drawn) [Cpd 106, pyridine-3-sulfonic acid (4-(3,4-dimethoxy-phenyl)-4-{1,3-dioxo-4-[4-(1R)-(1-phenyl-ethyl)-piperazin-1-yl]-1,3-dihydro-isoindol-2-yl}-butyl)-amide]	230 nM	80 nM	16 nM
COc1ccc(C(CCCNS(=O)(=O)c2ccccn2)N2C(=O)c3cccc(N4CCN([C@H](C)c5ccccc5)CC4)c3C2=O)cc1OC (stereo partly drawn) [Cpd 107, pyridine-2-sulfonic acid (4-(3,4-dimethoxy-phenyl)-4-{1,3-dioxo-4-[4-(1R)-(1-phenyl-ethyl)-piperazin-1-yl]-1,3-dihydro-isoindol-2-yl}-butyl)-amide]	440 nM	10 nM	25 nM
COc1ccc(C(CCCNS(=O)(=O)c2cnoc2C)N2C(=O)c3cccc(N4CCN([C@H](C)c5ccccc5)CC4)c3C2=O)cc1OC (stereo partly drawn) [Cpd 108, 5-methyl-isoxazole-4-sulfonic acid (4-(3,4-dimethoxy-phenyl)-4-{1,3-dioxo-4-[4-(1R)-(1-phenyl-ethyl)-piperazin-1-yl]-1,3-dihydro-isoindol-2-yl}-butyl)-amide]	46 nM	31 nM	14 nM
COc1ccc(C(CCCNS(=O)(=O)c2cccc3cccnc23)N2C(=O)c3cccc(N4CCN([C@H](C)c5ccccc5)CC4)c3C2=O)cc1OC (stereo partly drawn) [Cpd 109, quinoline-8-sulfonic acid (4-(3,4-dimethoxy-phenyl)-4-{1,3-dioxo-4-[4-(1R)-(1-phenyl-ethyl)-piperazin-1-yl]-1,3-dihydro-isoindol-2-yl}-butyl)-amide]	300 nM	19 nM	27 nM
COc1ccc(C(CCCNS(=O)(=O)CS(C)(=O)=O)N2C(=O)c3cccc(N4CCN([C@H](C)c5ccccc5)CC4)c3C2=O)cc1OC (stereo partly drawn) [Cpd 110, N-(4-(3,4-dimethoxy-phenyl)-4-{1,3-dioxo-4-[4-(1R)-(1-phenyl-ethyl)-piperazin-1-yl]-1,3-dihydro-isoindol-2-yl}-butyl)-C-methanesulfonyl-methanesulfonamide]	250 nM	25 nM	19 nM
